Assay results taken from patent US10709724B2, “Methods of treating mitochondrial dysfunction” (Ecole Polytechnique Federale de Lausanne (EPFL), priority 2011, dated 2020).

Legend:
C2C12 myotubes [1] = test: Intracellular NAD+ content in C2C12 myotubes treated with PARP inhibitors; assay type: cell-based; design: intracellular NAD+ over time / H2O2-induced NAD+ depletion: dose or concentration left out as unconfirmed
Description: Cell Culture, Transfection, Adenoviral Infection and Mitochondrial Characterization. HEK293T, MEF and C2C12 cells were cultured in DMEM (4.5 g/l glucose, 10% FCS). PARP-1^+/+ and PARP-1^−/− MEFs were prepared as described in (Menissier-de Murcia et al., 1997). SIRT1 and MEFs were kindly provided by Fred Alt (Chea et al., 2005). SIRT3 MER were established according to standard techniques from conditional SERT3^−/− mice. (Picard, F., Gehin, M., Annicotte, J., Rocchi, S., Champy, M. F., O'Malley, B. W., Chambon, P., and Auwerx, J. (2002). SRC-1 and TIF2 control energy balance between white and brown adipose tissues. Cell 111, 931-941.) Deletion of the SIRT3 gene was induced via infection with adenovirus encoding for the Cre recombinase. HEK293T cells were transfected using JetPei reagent (Polyplus Transfections, Illkirch, France) according to the manufacturer's instructions. C2C12 cells were differentiated in DMEM (4.5 g/L glucose, 2% horse serum) after reaching confluency for 2 days, followed by 2 days of PJ34 treatment (10 μM). PARP-1 shRNA constructs were described in (Shah et al., 2005). Human PARP-1 and siRNAs were obtained from Dharmacon (Thermo Scientific). The adenovirus encoding for FLAG-HA-PGC-1α, control and SIRT1 shRNAs were a kind gift from Pere Puigserver and were used (MOI=100) in C2C12 myotubes as described (Canto et al., 2009). Mitochondrial charge determination was performed as described (Bai et al., 2001) and DNA strand breaks were quantified by TUNEL assays according to the manufacturer's instructions (Millipore).
NAD^+ NAM Determination. NAD^+ levels in cultured cells were determined using a commercial kit (Enzychrom™, BioAssays Systems, CA). For tissue samples NAD^+ and NAM levels were determined as described in (Sauve et al., 2005). In brief, to a weighed aliquot of frozen pulverized tissue we added as standards, ^18O-NAD^+ (typically 2.00 nmol) and ^18O-NAM (typically 2.00 nmol). 70 L of ice-cold 7% perchloric acid was then added and the sample was vortexed and sonicated three times, then centrifuged. Clear supernatant was removed and neutralized by additions of 3 M NaOH and 1 M phosphate buffer (pH=9), then centrifuged. Clear supernatant was injected onto HPLC C-18 column with 20 mM ammonium acetate eluent to separate NAD^+ and NAM from other cellular components, NAD^+ and NAM peaks (260 nm absorbance) were collected. Collections were lyophilized to dryness and subjected to MALDI-TOF analysis. For NAD^+ measurement, ratio of intensities for m/z=664 and 666 peaks, corresponding to ^16O- and ^18O-NAD^+ isotopomers, was multiplied by 2.00 nmol and then divided by tissue weight to determine NAD+ concentration in the sample. For NAM the ratio of intensities for m/z=123 and 125 peaks, corresponding to ^16O- and ^18O-NAM isotopomers, was multiplied by 2.00 nmol and then divided by tissue weight to determine NAM concentration in the sample. Corrections were applied for isotopic abundance. Other NAD metabolites were determined as previously described (Yang and Sauve, Synthesis of nictotinamide riboside and derivatives: effective agents for increasing nictinomide adenine dinucleotide concentrations in mammalian cells. J Med Chem 50, 6458-6461 (2006)).

C57Bl/6J mice = test: NAD+ content in mouse tissues after one week of supplemented chow; assay type: in vivo; conditions: 400 mg/kg/day in chow
Description: Animal Experiments. […] In other animal experiments, 8 weeks-old male C57Bl/6J mice were purchased from Charles River and powder chow (D12450B) and high fat (D12492) diets were from Research Diets Inc (New Brunswick, N.J., USA). 80 ml of water per kg of powder CD were used to make food pellets. 40 ml of water per kg of powder HFD were used to make food pellets. […] Mice were housed separately, had ad libitum access to water and food and were kept under a 12 h dark-light cycle. Mice were fed with homemade pellets from 10 weeks of age. […] All animal experiments were carried out according to local national and EU ethical guidelines. To monitor body weight, mice were weighed and the food consumption was measured each week on the same day. In case of PJ34 treatment, mice received each 12 h (at 7:00 and 19:00) 10 mg/kg PJ34 by intraperitoneal injection for 5 continuous days. In all studies animals were killed (at 14:00) either after CO2 inhalation or cervical dislocation after 6 h of fasting (starting at 8:00), and tissues were collected and processed as specified below. […] Plasma insulin and was determined in heparinized plasma samples using specific ELISA kits (Mercodia). Blood samples were collected in heparinized tubes and plasma was isolated after centrifugation. Plasma parameters were measured using a Cobas c111 (Roche Diagnostics). […] The respiratory quotient was the ratio of CO2 production over O2 consumption. During actimetry, beamline crossings were summarized each 15 minutes.
NAD^+ NAM Determination. NAD^+ levels in cultured cells were determined using a commercial kit (Enzychrom™, BioAssays Systems, CA). […] 70 L of ice-cold 7% perchloric acid was then added and the sample was vortexed and sonicated three times, then centrifuged. Clear supernatant was removed and neutralized by additions of 3 M NaOH and 1 M phosphate buffer (pH=9), then centrifuged. Clear supernatant was injected onto HPLC C-18 column with 20 mM ammonium acetate eluent to separate NAD^+ and NAM from other cellular components, NAD^+ and NAM peaks (260 nm absorbance) were collected. Collections were lyophilized to dryness and subjected to MALDI-TOF analysis. […] Corrections were applied for isotopic abundance.

C2C12 myotubes [2] = test: NR uptake in C2C12 myotubes; assay type: in vitro ADME

Q: `CN(C)CC(=O)Nc1ccc2[nH]c(=O)c3ccccc3c2c1` [PJ34] was tested. Which “intracellular NAD+ at 24 hrs, dose dependence” value (C2C12 myotubes [1]; 24 hrs (FIG. 6F)) did it give?
A: The value was “dose dependent manner”.

Q: And the “intracellular NAD+ content” value (C2C12 myotubes [1]; 24 hrs, 1 mM (FIG. 13B))?
A: The value was “leads to increased intracellular content”.

Q: What about the “intracellular NAD+ during H2O2 treatment” value (C2C12 myotubes [1]; H2O2 500 μM, 6 hrs, PJ34 1 μM) of the same compound?
A: Its value is “prevented the decrease in intracellular NAD^+”.

Q: What about the “H2O2-induced NAD+ depletion” value (C2C12 myotubes [1]; PJ34 24 hrs, H2O2 1 hr (FIG. 13B)) of the same compound?
A: Its value is “global inhibition of PARP activity with PJ34 did”.

Q: What about the “intracellular NAD+ over time” value (C2C12 myotubes [1]; PJ34 for the times indicated (FIG. 6D)) of the same compound?
A: The value was “gradual increase in NAD^+, becoming significant 24 hrs after the initiation of the treatment”.

Q: For `NC(=O)c1ccc[n+]([C@@H]2O[C@H](CO)[C@@H](O)[C@H]2O)c1` [NR, nicotinamide riboside], which “NAD+ levels in liver” value (C57Bl/6J mice) is on record?
A: Its value is “increased NAD^+ levels in liver”.

Q: And the “mitochondrial NAD+ levels in mouse liver” value (C57Bl/6J mice)?
A: The value was “mitochondrial NAD^+ levels were enhanced”.

Q: What about the “muscle NAD+ content” value (C57Bl/6J mice; quadriceps) of the same compound?
A: Its value is “significantly enhanced muscle NAD^+ content”.

Q: What about the Km (C2C12 myotubes [2]) of the same compound?
A: Its Km is 172 ± 17.6 µM.

Q: What about the “Vmax of NR uptake” value (C2C12 myotubes [2]) of the same compound?
A: The value was 204.2±20.5 pmol/mg of protein/min.
